This is an account of results in patent US11351265B2, “Process for formulating an anionic agent” (Dicerna Pharmaceuticals, Inc., priority 2013, dated 2022).

≈ marks a conversion by molar mass, not a printed value.

This series is described as follows: Solubility of cholesterol in ethanol. It is filed as physicochemical. Particulars: organic solvent or mixture, room temperature, absence of other lipids and/or sterols, read-out: solubility limit in ethanol. From the text: Thus, a process is provided for raising the amount of an original lipid, sterol and/or blend of lipid(s) and/or sterol(s) that may be solubilized in a solvent (e.g., an alcoholic solvent, e.g., ethanol) by pre-mixing other lipid(s), sterol(s) and/or blend of lipid(s) and/or sterol(s), as oils, powders and/or in solvent(s), before adding such a pre-mixture to the original solubility-limited lipid, sterol and/or blend of lipid(s), thereby effectively raising the solubility limit of the original lipid in the solvent. […] Without wishing to be bound by theory, it is believed that the newly discovered ability to provide high concentration solutions of lipids/sterols at such elevated concentrations enhances the homogeneity of a lipid-anionic agent particle population, as compared to the concentrations at which such lipids/sterols are routinely used within the particle formulation process.
The above-described process schematically exemplified in FIG. 1, which is also referred to herein as “2141”, was not only distinguished from other tested processes in the order of addition of DsiRNA-lipid complexes and additional lipids in ethanol, but also was distinguished from other processes by the concentration of lipids and sterols that were solubilized in the additional lipids in ethanol solution. […]

Regarding `CC(C)CCC[C@@H](C)[C@H]1CC[C@H]2[C@@H]3CC=C4C[C@@H](O)CC[C@]4(C)[C@H]3CC[C@]12C` [cholesterol], the solubility (as a rule, how much of the substance goes into solution per volume) lay in the range of 10 to 11 mg/mL (≈ 25.9 to 28.4 mM).
